Assays:
[1] = tested on: ceramide channels in liposomes; assay: Liposome carboxyfluorescein release (ceramide channel formation in liposomes); assay type: biochemical; settings: C16-ceramide 80 μg, liposomes 90 μg lipid
Method: The polar extract of soybean phospholipids (Avanti Polar Lipids, Alabaster, Ala.) and cholesterol (Sigma Chemical, St. Louis, Mo.) were mixed in a 93:7 molar ratio in chloroform and dried under nitrogen followed by drying in vacuo overnight. This mixture resembles the lipid content of mammalian mitochondrial outer membranes. Five mg of this mixture were dispersed in 1 mL of 39 mM NaCl, 6 mM DPX (Molecular Probes, Eugene, Oreg.), 1.5 mM carboxyfluorescein (Acros Organics, Geel, Belgium) and subjected to four freeze-thaw/sonication cycles. After extrusion through a 0.2 μm filter (Avanti Polar Lipids) for 13 passes it was run through a gel filtration column equilibrated and eluted with 50 mM NaCl, 10 mM HEPES, 1 mM EDTA, pH 7.0. The liposomes were used within 30 h. Twenty-five microliters of liposomes were dispersed into 2.0 mL of the elution buffer and placed into a quartz fluorescence cuvette. The fluorescence was monitored using a Deltascan Spectrofluorometer (Photon Technology Instruments, West Sussex, UK) using excitation at 495 nm and emission at 520 nm. Forty microliters of C16-ceramide (2 mg/mL of isopropanol) were added while stirring. Sphingosine was added from either a 1 mg/mL or a 0.1 mg/mL solution in DMSO.

ceramide channels = assay: Screening for influence on ceramide channel formation in liposomes or planar membranes; assay type: biochemical
Excerpt: In one embodiment, such methods comprise screening compounds for their ability to influence the formation of ceramide channels in liposomes or planar membranes. […] Such liposomes or planar membranes can be produced using any of a variety of lipids. Preferably, however, the constituents of the liposomes or planar membranes will be selected to mimic those of the MOM, or to have relevance to such membranes (see, Weissig, V. et al. (2006) “LIPOSOMES AND LIPOSOME-LIKE VESICLES FOR DRUG AND DNA DELIVERY TO MITOCHONDRIA,” J. Liposome Res. 16(3):249-264; Torchilin, V. P. (2006) “RECENT APPROACHES TO INTRACELLULAR DELIVERY OF DRUGS AND DNA AND ORGANELLE TARGETING,” Annu. Rev. Biomed. Eng. 8:343-375; Elrick, M. J. et al. (2006) “SPHINGOSINE, A PRODUCT OF CERAMIDE HYDROLYSIS, INFLUENCES THE FORMATION OF CERAMIDE CHANNELS,” Biophys. J. 1; 91(5):1749-1756; Bathori, G. et al. (2006) “CA2+-DEPENDENT CONTROL OF THE PERMEABILITY PROPERTIES OF THE MITOCHONDRIAL OUTER MEMBRANE AND VOLTAGE-DEPENDENT ANION-SELECTIVE CHANNEL (VDAC),” J. Biol. Chem. 281(25):17347-17358; Stiban, J. et al. (2006) “DIHYDROCERAMIDE HINDERS CERAMIDE CHANNEL FORMATION: IMPLICATIONS ON APOPIOSIS,” Apoptosis 11(5):773-780; Stover, T. C. et al. (2005) “SYSTEMIC DELIVERY OF LIPOSOMAL SHORT-CHAIN CERAMIDE LIMITS SOLID TUMOR GROWTH IN MURINE MODELS OF BREAST ADENOCARCINOMA,” Clin. Cancer Res. 11(9):3465-3474).

[2] = published value; cited from earlier work

**Q.** Which results are given for `CCCCCCCCCCCCC/C=C/[C@@H](O)[C@@H](N)CO` [sphingosine]?
**A.** effect of pretreatment on C16-ceramide-induced carboxyfluorescein release from liposomes [1]: biphasic enhancement; concentration at which very potent inhibitor of ceramide channels (ceramide channels): 5 µM; CMC [2]: more than 30 μg/mL

Source: patent US7897401B2, “Control of apoptosis by controlling the propensity of ceramide channel formation” (University of Maryland, College Park, priority 2005, dated 2011)
